For test [1], the target named is T1, PRMT5 (Homo sapiens, UniProt O14744).
T1 construct: purchased Viva (custom protein)
The test is described as follows: PRMT5 biochemical IC50 assay with MTA as cofactor. Particulars: PRMT5, MTA as cofactor; read-out: MTA IC50.

The subject of test [2] is HAP1 MTAP-intact cell line. The test is described as follows: SDMA in-cell western assay, HAP1 MTAP-intact. Conditions: Homo sapiens. Format: cell-based. The method, boiled down: (§1)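 Readout: in-cell western detection of SDMA. Cells: HAP1 expressing endogenous MTAP and an MTAP-null HAP1 counterpart. Output: IC50.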
Test [3] deals with HAP1 MTAP-deleted cell line. The test is described as follows: SDMA in-cell western assay, HAP1 MTAP-deleted. Format: cell-based. Conditions: for pIC50: Homo sapiens; for MTAP intact/deleted ratio: IC50 ratio HAP1 MTAP-intact / HAP1 MTAP-deleted, SDMA in-cell western. The method, boiled down: as §1
Test [4] deals with T1, PRMT5. The test is described as follows: PRMT5 biochemical IC50 assay with no cofactor. Conditions: PRMT5, no cofactor; read-out: No Cofactor/rel IC50. From the text:
Table 1 indicates IC50 values (μM) against PRMT5 for exemplary compounds in the presence of SAM as cofactor, with no cofactor, and with MTA as cofactor, respectively (columns 4-6). […] Ki values can be calculated from the IC50 values as described in the Examples section. As detailed in the Examples section, for the assay performed in the presence of SAM, IC50=Ki×1.5 (Ki=IC50/1.5).

Test [5] addresses T1, PRMT5. The test is described as follows: PRMT5 biochemical IC50 assay with SAM as cofactor. Particulars: PRMT5, SAM as cofactor; read-out: SAM IC50.
Test [6] concerns HAP1 MTAP-deleted cell line. The test is described as follows: Viability assay, MTAP-deleted cell line. Format: cell-based. Conditions: Homo sapiens. From the text: Table 1 additionally indicates IC50 values in a viability assay for the MTAP-deleted cell line (column 10), indicating the effect of treatment with compound on cell survival.
Setting [7] is: HAP1, SDMA in-cell western, HAP1 MTAP-intact, read-out: MTAP HAP1 intact IC50.
The mark [8] stands for this setting: HAP1, SDMA in-cell western, HAP1 MTAP-deleted, read-out: HAP 1 MTAP deleted IC50.
Where [9] appears, read: HAP1, viability IC50, MTAP-deleted cell line, read-out: HAP1 MTAP deleted viability.
The mark [10] stands for this setting: HAP1, read-out: MTAP HAP1 intact IC50.
Where [11] appears, read: HAP1, read-out: HAP1 MTAP deleted IC50.
[12] abbreviates: HAP1, read-out: HAP1 MTAP deleted viability.

pIC50: −log10 of the molar value. Read-outs that look alike come from different tables or passages of the source. Some results are limits rather than exact numbers.

T1 sequence (O14744 whole entry): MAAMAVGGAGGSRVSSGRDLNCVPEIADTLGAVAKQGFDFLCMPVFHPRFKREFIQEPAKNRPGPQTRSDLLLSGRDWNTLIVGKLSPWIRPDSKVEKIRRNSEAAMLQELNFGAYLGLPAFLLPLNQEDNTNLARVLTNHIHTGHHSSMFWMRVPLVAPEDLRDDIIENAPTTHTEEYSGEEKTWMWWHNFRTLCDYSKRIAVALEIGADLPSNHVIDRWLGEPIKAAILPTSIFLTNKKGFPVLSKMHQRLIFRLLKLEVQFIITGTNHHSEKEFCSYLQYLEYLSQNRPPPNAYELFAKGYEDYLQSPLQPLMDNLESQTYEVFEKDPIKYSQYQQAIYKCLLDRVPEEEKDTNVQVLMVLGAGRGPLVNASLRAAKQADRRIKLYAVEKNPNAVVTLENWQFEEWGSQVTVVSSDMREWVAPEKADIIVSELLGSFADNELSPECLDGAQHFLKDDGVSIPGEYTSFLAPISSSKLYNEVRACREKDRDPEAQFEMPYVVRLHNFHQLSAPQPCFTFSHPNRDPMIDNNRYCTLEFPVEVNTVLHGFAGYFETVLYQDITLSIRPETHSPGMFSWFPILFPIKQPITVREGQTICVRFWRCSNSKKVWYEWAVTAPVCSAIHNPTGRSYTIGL
T1 sequence (Q9BQA1 whole entry partner): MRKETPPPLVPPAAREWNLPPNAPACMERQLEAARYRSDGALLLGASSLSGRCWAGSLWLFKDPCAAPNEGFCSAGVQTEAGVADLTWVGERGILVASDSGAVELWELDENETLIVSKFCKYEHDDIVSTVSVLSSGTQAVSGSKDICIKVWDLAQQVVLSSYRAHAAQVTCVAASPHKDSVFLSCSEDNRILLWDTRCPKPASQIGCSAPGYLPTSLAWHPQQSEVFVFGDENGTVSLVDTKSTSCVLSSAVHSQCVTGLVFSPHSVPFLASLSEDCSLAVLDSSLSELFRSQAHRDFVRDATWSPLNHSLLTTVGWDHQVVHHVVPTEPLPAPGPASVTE

Take `CC(=O)Oc1ccc([C@H]2CC[C@H](C)CN2C(=O)C(=O)Nc2cnc(N)c(C)c2)cc1` (single isomer, unassigned) [Compound 597]: the pIC50 on PRMT5 [1] is less than 6.30; in test [2] (setting [7]), less than 6.00; in test [3] (setting [8]), less than 6.00; on PRMT5 [4], less than 6.30; at PRMT5 [5], less than 6.30; in test [6] (setting [9]), less than 5.00. In test [3], the MTAP intact/deleted ratio entry was “B (an IC50 ratio greater than or equal to 3 fold but lower than 10 fold)”.
For `C[C@H]1CC[C@H](c2ccc3c(c2)OCCN3)N(C(=O)C(=O)Nc2cncc(C(N)=O)c2)C1` (single isomer, unassigned) [Compound 598], the pIC50 on PRMT5 [1] was greater than 7.30; in test [2] (setting [7]), less than 6.00; in test [3] (setting [8]) it was greater than 7.00; at PRMT5 [4] it was 6.30 to 7.30; on PRMT5 [5], greater than 7.30; in test [6] (setting [9]) it was greater than 6.00. Moreover, the MTAP intact/deleted ratio result in test [3] is given as “A (an IC50 ratio greater than or equal to 10 fold)”.
On to `CC(=O)Oc1ccc([C@@H]2CC[C@@H](C)CN2C(=O)C(=O)Nc2cncc(C(N)=O)c2)cc1` (single isomer, unassigned) [Compound 599, 4-(1-(2-((5-carbamoylpyridin-3-yl)amino)-2-oxoacetyl)-5-methylpiperidin-2-yl)phenyl acetate], for which the pIC50 is less than 6.30 at PRMT5 [1]; less than 6.00 in test [2] (setting [7]); less than 6.00 in test [3] (setting [8]); less than 6.30 at PRMT5 [4]; less than 6.30 on PRMT5 [5]; less than 5.00 in test [6] (setting [9]). Besides, the MTAP intact/deleted ratio result in test [3] was “B (an IC50 ratio greater than or equal to 3 fold but lower than 10 fold)”.
On to `COc1ncc(NC(=O)C(=O)N2C[C@@H](C)CC[C@@H]2c2ccc3scnc3c2)cc1C(N)=O` (single isomer, unassigned) [Compound 602], for which the pIC50 was greater than 7.30 at PRMT5 [1]; 6.00 to 7.00 in test [2] (setting [10]); greater than 7.00 in test [3] (setting [11]); greater than 7.30 at PRMT5 [4]; greater than 7.30 at PRMT5 [5]; greater than 6.00 in test [6] (setting [12]). Also, the MTAP intact/deleted ratio entry in test [3] is recorded as “A (an IC50 ratio greater than or equal to 10 fold)”.
As to `COc1ncc(NC(=O)C(=O)N2C[C@H](C)CC[C@H]2c2ccc3scnc3c2)cc1C(N)=O` (single isomer, unassigned) [Compound 603], the pIC50 was less than 6.30 on PRMT5 [1]; less than 6.00 in test [2] (setting [10]); less than 6.00 in test [3] (setting [11]); less than 6.30 on PRMT5 [4]; less than 6.30 at PRMT5 [5]; less than 5.00 in test [6] (setting [12]). In addition, the MTAP intact/deleted ratio entry in test [3] was “C (an IC50 ratio of less than 3 fold)”.
Turning to `CC(=O)Oc1ccc([C@H]2CC[C@H](C)CN2C(=O)C(=O)Nc2cncc(C(N)=O)c2)cc1` (single isomer, unassigned) [Compound 604, 4-(1-(2-((5-carbamoylpyridin-3-yl)amino)-2-oxoacetyl)-5-methylpiperidin-2-yl)phenyl acetate], the pIC50 was 6.30 to 7.30 at PRMT5 [1]; 6.00 to 7.00 in test [2] (setting [7]); greater than 7.00 in test [3] (setting [8]); 6.30 to 7.30 on PRMT5 [4]; greater than 7.30 at PRMT5 [5]; greater than 6.00 in test [6] (setting [9]). Further, in test [3], the MTAP intact/deleted ratio entry is recorded as “A (an IC50 ratio greater than or equal to 10 fold)”.
For the compound `Cc1cc(NC(=O)C(=O)N2C[C@@H](C)CC[C@@H]2c2ccc(F)c(Cl)c2)cnc1N` (single isomer, unassigned) [Compound 606], the pIC50 at PRMT5 [1] was less than 6.30; in test [2] (setting [7]), less than 6.00; in test [3] (setting [8]) it was less than 6.00; at PRMT5 [4], less than 6.30; at PRMT5 [5] it was less than 6.30; in test [6] (setting [9]), less than 5.00. In test [3], the MTAP intact/deleted ratio entry is “B (an IC50 ratio greater than or equal to 3 fold but lower than 10 fold)”.
Regarding `C[C@@H]1CC[C@@H](c2ccc(N)cn2)N(C(=O)C(=O)Nc2cncc(C(N)=O)c2)C1` (single isomer, unassigned) [Compound 607], the pIC50 on PRMT5 [1] was 6.30 to 7.30; in test [2] (setting [7]) it was less than 6.00; in test [3] (setting [8]), less than 6.00; on PRMT5 [4], less than 6.30; at PRMT5 [5], 6.30 to 7.30; in test [6] (setting [9]) it was less than 5.00. Further, the MTAP intact/deleted ratio result in test [3] is reported as “B (an IC50 ratio greater than or equal to 3 fold but lower than 10 fold)”.
`Cc1cc([C@@H]2CC[C@@H](C)CN2C(=O)C(=O)Nc2cnc(N)c(C)c2)ccn1` (single isomer, unassigned) [Compound 608]: the pIC50 on PRMT5 [1] was greater than 7.30; in test [2] (setting [7]), 6.00 to 7.00; in test [3] (setting [8]) it was greater than 7.00; at PRMT5 [4] it was greater than 7.30; at PRMT5 [5] it was greater than 7.30; in test [6] (setting [9]), greater than 6.00. The MTAP intact/deleted ratio result in test [3] is “A (an IC50 ratio greater than or equal to 10 fold)”.
For the compound `C[C@@H]1CC[C@@H](c2ccc3[nH]ncc3c2F)N(C(=O)C(=O)Nc2cncc(C(N)=O)c2)C1` (single isomer, unassigned) [Compound 612], the pIC50 at PRMT5 [1] was greater than 7.30; in test [2] (setting [7]) it was less than 6.00; in test [3] (setting [8]), greater than 7.00; at PRMT5 [4], 6.30 to 7.30; at PRMT5 [5], 6.30 to 7.30; in test [6] (setting [9]), 5.00 to 6.00. Besides, the MTAP intact/deleted ratio entry in test [3] is reported as “A (an IC50 ratio greater than or equal to 10 fold)”.
On to `C[C@H]1CC[C@H](c2cc(F)cc(Cl)c2)N(C(=O)C(=O)Nc2cncc(C(N)=O)c2)C1` (single isomer, unassigned) [Compound 615], for which the pIC50 at PRMT5 [1] is greater than 7.30; in test [2] (setting [7]), less than 6.00; in test [3] (setting [8]), greater than 7.00; at PRMT5 [4], 6.30 to 7.30; on PRMT5 [5], 6.30 to 7.30; in test [6] (setting [9]), 5.00 to 6.00. Also, the MTAP intact/deleted ratio entry in test [3] is given as “A (an IC50 ratio greater than or equal to 10 fold)”.
Take `Cc1cc(NC(=O)C(=O)N2C[C@H](C)CC[C@H]2c2ccc3sccc3c2)cnc1N` (single isomer, unassigned) [Compound 617]: the pIC50 on PRMT5 [1] is less than 6.30; in test [2] (setting [7]) it was less than 6.00; in test [3] (setting [8]) it was 6.00 to 7.00; at PRMT5 [4], less than 6.30; at PRMT5 [5], less than 6.30; in test [6] (setting [9]), less than 5.00. The MTAP intact/deleted ratio result in test [3] was “A (an IC50 ratio greater than or equal to 10 fold)”.
As to `COc1ncc(NC(=O)C(=O)N2C[C@@H](C)CC[C@@H]2c2ccc3sccc3c2)cc1C(N)=O` (single isomer, unassigned) [Compound 618], the pIC50 on PRMT5 [1] was greater than 7.30; in test [2] (setting [7]) it was less than 6.00; in test [3] (setting [8]), greater than 7.00; at PRMT5 [4] it was greater than 7.30; at PRMT5 [5], greater than 7.30; in test [6] (setting [9]) it was greater than 6.00. Also, the MTAP intact/deleted ratio entry in test [3] is “A (an IC50 ratio greater than or equal to 10 fold)”.
Regarding `Cc1cc(NC(=O)C(=O)N2C[C@@H](C)CC[C@@H]2c2ccc3c(c2)CCC(=O)N3)cnc1C` (single isomer, unassigned) [Compound 619], the pIC50 at PRMT5 [1] was less than 6.30; in test [2] (setting [7]), less than 6.00; in test [3] (setting [8]), 6.00 to 7.00; on PRMT5 [4] it was less than 6.30; at PRMT5 [5], less than 6.30; in test [6] (setting [9]), 5.00 to 6.00. Also, the MTAP intact/deleted ratio result in test [3] is recorded as “A (an IC50 ratio greater than or equal to 10 fold)”.
For `Cc1cc(NC(=O)C(=O)N2C[C@@H](C)CC[C@@H]2c2ccc3[nH]ncc3c2)cnc1C` (single isomer, unassigned) [Compound 620], the pIC50 at PRMT5 [1] is greater than 7.30; in test [2] (setting [7]), 6.00 to 7.00; in test [3] (setting [8]) it was greater than 7.00; on PRMT5 [4], greater than 7.30; at PRMT5 [5] it was 6.30 to 7.30; in test [6] (setting [9]) it was greater than 6.00. The MTAP intact/deleted ratio result in test [3] is given as “A (an IC50 ratio greater than or equal to 10 fold)”.
As for `Cc1cc(NC(=O)C(=O)N2C[C@@H](C)CC[C@@H]2c2ccc(NS(C)(=O)=O)cc2)cnc1C` (single isomer, unassigned) [Compound 621], the pIC50 at PRMT5 [1] was greater than 7.30; in test [2] (setting [7]), 6.00 to 7.00; in test [3] (setting [8]), greater than 7.00; on PRMT5 [4] it was greater than 7.30; on PRMT5 [5], 6.30 to 7.30; in test [6] (setting [9]), 5.00 to 6.00. In addition, the MTAP intact/deleted ratio entry in test [3] is recorded as “A (an IC50 ratio greater than or equal to 10 fold)”.
As to `C[C@H]1CC[C@@H](c2cc(F)cc(Cl)c2)N(C(=O)C(=O)Nc2cncc(C(N)=O)c2)C1` (single isomer, unassigned) [Compound 624], the pIC50 at PRMT5 [1] was less than 6.30; in test [2] (setting [7]) it was less than 6.00; in test [3] (setting [8]), less than 6.00; at PRMT5 [4], less than 6.30; at PRMT5 [5], less than 6.30; in test [6] (setting [9]), less than 5.00. Moreover, the MTAP intact/deleted ratio result in test [3] is “B (an IC50 ratio greater than or equal to 3 fold but lower than 10 fold)”.

The values above are taken from patent publication US11999727B2 (Tango Therapeutics, Inc., priority 2020, dated 2024).
